Measurements published in publication PMC9090415, “Discovery of small molecule inhibitors of Plasmodium falciparum apicoplast DNA polymerase” (Journal of Enzyme Inhibition and Medicinal Chemistry, 2022).

Biological target: P. falciparum apicoplast DNA polymerase (Pf-apPOL) (Plasmodium falciparum, UniProt Q8ILY1)
Experiment: Fluorescence-based high-throughput DNA polymerase assay (molecular beacon), primary screen and dose-response
Assay type: biochemical
Conditions: for DNA Pol: unit not given, 90 min, 10 µM; for % inhibition apPOL 180' 2.5 / % inhibition apPOL 180' 5 / % inhibition apPOL 180' 10 / % inhibition apPOL 180' 20 / % inhibition apPOL 180' 40 / % inhibition apPOL 180' 80: read at 180'
In short: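 Single-point screening used 10 µM compound with 20 nM polymerase, 20 nM hairpin substrate and 6 µM dNTPs for 90 min at 25 °C. Confirmatory titrations (2.5–80 µM) followed fluorescence at three times, and IC50 was derived from a fit including a cooperativity term n.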

P. falciparum apicoplast DNA polymerase (Pf-apPOL), sequence (Q8ILY1 entry or part of it): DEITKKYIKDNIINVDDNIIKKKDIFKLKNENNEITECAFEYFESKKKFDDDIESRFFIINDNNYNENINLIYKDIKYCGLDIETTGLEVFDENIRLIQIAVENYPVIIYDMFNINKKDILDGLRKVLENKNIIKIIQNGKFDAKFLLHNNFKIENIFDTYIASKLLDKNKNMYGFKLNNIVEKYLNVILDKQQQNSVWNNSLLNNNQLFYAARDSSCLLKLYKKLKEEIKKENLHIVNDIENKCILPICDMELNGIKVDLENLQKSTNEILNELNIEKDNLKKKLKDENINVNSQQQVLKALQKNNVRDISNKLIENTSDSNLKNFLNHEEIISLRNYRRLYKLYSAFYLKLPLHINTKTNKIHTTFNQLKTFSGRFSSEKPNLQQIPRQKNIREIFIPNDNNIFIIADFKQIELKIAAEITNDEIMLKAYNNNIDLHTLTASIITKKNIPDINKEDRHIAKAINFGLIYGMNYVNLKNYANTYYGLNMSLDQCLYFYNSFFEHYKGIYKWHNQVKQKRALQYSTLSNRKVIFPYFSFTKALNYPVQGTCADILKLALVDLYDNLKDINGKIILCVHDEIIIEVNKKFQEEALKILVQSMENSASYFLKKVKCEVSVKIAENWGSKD

Compound: O=C(CCc1csc(NC(=O)Nc2ccccc2)n1)Nc1nc2ccccc2s1 [KU0177354]
- DNA Pol (186 hits, DNA Pol (screen value)): 40
- DNA Pol ('DNA Pol' (screen value)): 40
- % inhibition Apo pol 10' 2.5 (DRC-1, read at 10', concentration 2.5): 5.576%
- % inhibition Apo pol 10' 5 (DRC-1, read at 10', concentration 5): 8.503%
- % inhibition Apo pol 10' 10 (DRC-1, read at 10', concentration 10): 43.0217%
- % inhibition Apo pol 10' 20 (DRC-1, read at 10', concentration 20): 76.9078%
- % inhibition Apo pol 10' 40 (DRC-1, read at 10', concentration 40): 79.3304%
- % inhibition Apo pol 10' 80 (DRC-1, read at 10', concentration 80): 82.5837%
- % inhibition Apol 90' 2.5 (DRC-1, read at 90', concentration 2.5): -1.376%
- % inhibition Apol 90' 5 (DRC-1, read at 90', concentration 5): -0.284%
- % inhibition Apol 90' 10 (DRC-1, read at 90', concentration 10): 25.6988%
- % inhibition Apol 90' 20 (DRC-1, read at 90', concentration 20): 59.1025%
- % inhibition Apol 90' 40 (DRC-1, read at 90', concentration 40): 63.1922%
- % inhibition Apol 90' 80 (DRC-1, read at 90', concentration 80): 69.3927%
- % inhibition apPOL 180' 2.5 (DRC-1, concentration 2.5): -6.865%
- % inhibition apPOL 180' 5 (DRC-1, concentration 5): -6.2%
- % inhibition apPOL 180' 10 (DRC-1, concentration 10): 11.7395%
- % inhibition apPOL 180' 20 (DRC-1, concentration 20): 39.4261%
- % inhibition apPOL 180' 40 (DRC-1, concentration 40): 45.9927%
- % inhibition apPOL 180' 80 (DRC-1, concentration 80): 55.8861%
- % inhibition Apo pol 5' (DRC-2, concentration 5): -6%
- % inhibition Apo pol 5' (DRC-2, concentration 20): 37%
- % inhibition Apol 40' (DRC-2, concentration 5): -6%
- % inhibition Apol 40' (DRC-2, concentration 10): 46%
- % inhibition Apol 40' (DRC-2, concentration 20): 49%
- % inhibition Apol 40' (DRC-2, concentration 40): 53%
- % inhibition Apol 40' (DRC-2, concentration 80): 49%
- % inhibition ApPOL 90' (DRC-2, 90', concentration 40): 53%
- % inhibition apPOL 180' (DRC-2, concentration 20): 37%
- % inhibition apPOL 180' (DRC-2, concentration 80): 46%
- % inhibition Apo pol 5' 2.5 (DRC-2, read at 5', concentration 2.5): -3.16%
- % inhibition Apo pol 5' 5 (DRC-2, read at 5', concentration 5): -6%
- % inhibition Apo pol 5' 10 (DRC-2, read at 5', concentration 10): 38%
- % inhibition Apo pol 5' 20 (DRC-2, read at 5', concentration 20): 37%
- % inhibition Apo pol 5' 40 (DRC-2, read at 5', concentration 40): 34%
- % inhibition Apo pol 5' 80 (DRC-2, read at 5', concentration 80): 29%
- % inhibition Apol 40' 2.5 (DRC-2, read at 40', concentration 2.5): -3.41%
- % inhibition Apol 40' 5 (DRC-2, read at 40', concentration 5): -6%
- % inhibition Apol 40' 10 (DRC-2, read at 40', concentration 10): 46%
- % inhibition Apol 40' 20 (DRC-2, read at 40', concentration 20): 49%
- % inhibition Apol 40' 40 (DRC-2, read at 40', concentration 40): 53%
- % inhibition Apol 40' 80 (DRC-2, read at 40', concentration 80): 49%
- % inhibition ApPOL 90' 2.5 (DRC-2, read at 90', concentration 2.5): -4%
- % inhibition ApPOL 90' 5 (DRC-2, read at 90', concentration 5): -7%
- % inhibition ApPOL 90' 10 (DRC-2, read at 90', concentration 10): 43%
- % inhibition ApPOL 90' 20 (DRC-2, read at 90', concentration 20): 48%
- % inhibition ApPOL 90' 40 (DRC-2, read at 90', concentration 40): 53%
- % inhibition ApPOL 90' 80 (DRC-2, read at 90', concentration 80): 51%
- % inhibition apPOL 180' 2.5 (DRC-2, concentration 2.5): -8%
- % inhibition apPOL 180' 5 (DRC-2, concentration 5): -12%
- % inhibition apPOL 180' 10 (DRC-2, concentration 10): 32%
- % inhibition apPOL 180' 20 (DRC-2, concentration 20): 37%
- % inhibition apPOL 180' 40 (DRC-2, concentration 40): 47%
- % inhibition apPOL 180' 80 (DRC-2, concentration 80): 46%
